Reference: PubChem BioAssay (NCI)
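In this assay, cells in 96-well plates receive the compound at five concentrations for 48 hours. Endpoints are linearly interpolated between the surrounding concentrations. At the GI50, growth is halved. TGI marks complete inhibition of growth.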

Columns and labels:
Assay in all cases: DTP human tumour cell line panel, 48 h
HCT-15 colon = tested on: HCT-15 colon
HT29 colon = tested on: HT29 colon
RPMI-8226 leukemia = tested on: RPMI-8226 leukemia
M14 melanoma = tested on: M14 melanoma
NCI-H226 lung = tested on: NCI-H226 lung
ACHN renal = tested on: ACHN renal
RXF 393 renal = tested on: RXF 393 renal
HOP-92 NSCLC = tested on: HOP-92 NSCLC
T-47D breast = tested on: T-47D breast
EKVX NSCLC = tested on: EKVX NSCLC
A498 renal = tested on: A498 renal
HCC-2998 colon = tested on: HCC-2998 colon
SK-MEL-2 melanoma = tested on: SK-MEL-2 melanoma
COLO 205 colon = tested on: COLO 205 colon
NCI-H23 lung = tested on: NCI-H23 lung
U251 CNS = tested on: U251 CNS
NCI-H522 lung = tested on: NCI-H522 lung
UO-31 renal = tested on: UO-31 renal
HS 578T breast = tested on: HS 578T breast
NCI/ADR-RES ovarian = tested on: NCI/ADR-RES ovarian
OVCAR-4 ovarian = tested on: OVCAR-4 ovarian
UACC-62 melanoma = tested on: UACC-62 melanoma
MOLT-4 leukemia = tested on: MOLT-4 leukemia
SF-268 CNS = tested on: SF-268 CNS
OVCAR-3 ovarian = tested on: OVCAR-3 ovarian
UACC-257 melanoma = tested on: UACC-257 melanoma
OVCAR-8 ovarian = tested on: OVCAR-8 ovarian
KM12 colon = tested on: KM12 colon
MCF7 breast = tested on: MCF7 breast
MDA-MB-231 breast = tested on: MDA-MB-231 breast
SN12C renal = tested on: SN12C renal
SK-MEL-5 melanoma = tested on: SK-MEL-5 melanoma
HL-60(TB) leukemia = tested on: HL-60(TB) leukemia
SK-OV-3 ovarian = tested on: SK-OV-3 ovarian
OVCAR-5 ovarian = tested on: OVCAR-5 ovarian
SF-539 CNS = tested on: SF-539 CNS
PC-3 prostate = tested on: PC-3 prostate
IGROV1 ovarian = tested on: IGROV1 ovarian
LOX IMVI melanoma = tested on: LOX IMVI melanoma
NCI-H460 lung = tested on: NCI-H460 lung
SF-295 CNS = tested on: SF-295 CNS
MALME-3M melanoma = tested on: MALME-3M melanoma
CCRF-CEM leukemia = tested on: CCRF-CEM leukemia
SW-620 colon = tested on: SW-620 colon
SK-MEL-28 melanoma = tested on: SK-MEL-28 melanoma
MDA-MB-435 = tested on: MDA-MB-435
TK-10 renal = tested on: TK-10 renal
BT-549 breast = tested on: BT-549 breast
DU-145 prostate = tested on: DU-145 prostate
A549 NSCLC = tested on: A549 NSCLC
CAKI-1 renal = tested on: CAKI-1 renal
SR leukemia = tested on: SR leukemia
SNB-19 CNS = tested on: SNB-19 CNS
HOP-62 NSCLC = tested on: HOP-62 NSCLC
K-562 leukemia = tested on: K-562 leukemia
HCT-116 colon = tested on: HCT-116 colon
SNB-75 CNS = tested on: SNB-75 CNS
786-0 renal = tested on: 786-0 renal

Q: With `Cc1cc(C(=O)Nc2ccc3cc(CN4CCOCC4)ccc3n2)c(C)n1-c1ccccc1` as the compound, how does the GI50 (HCT-15 colon) read?
A: 2.41 µM

Q: And the TGI (HCT-15 colon)?
A: 20.4 µM

Q: And the GI50 (HT29 colon)?
A: 2.71 µM

Q: What about the TGI (HT29 colon) of the same compound?
A: > 100 µM

Q: What about the GI50 (RPMI-8226 leukemia) of the same compound?
A: 0.822 µM

Q: What about the TGI (RPMI-8226 leukemia) of the same compound?
A: 3.73 µM

Q: What about the GI50 (M14 melanoma) of the same compound?
A: 1.81 µM

Q: And the TGI (M14 melanoma)?
A: 5.71 µM

Q: And the GI50 (NCI-H226 lung)?
A: 0.374 µM

Q: And the TGI (NCI-H226 lung)?
A: 5.92 µM

Q: And the GI50 (ACHN renal)?
A: 2.6 µM

Q: And the TGI (ACHN renal)?
A: 42.3 µM

Q: What about the GI50 (RXF 393 renal) of the same compound?
A: 2.18 µM

Q: And the TGI (RXF 393 renal)?
A: 7.01 µM

Q: And the GI50 (HOP-92 NSCLC)?
A: 2.15 µM

Q: And the TGI (HOP-92 NSCLC)?
A: 40.3 µM

Q: What about the GI50 (T-47D breast) of the same compound?
A: 0.393 µM

Q: What about the TGI (T-47D breast) of the same compound?
A: 4.56 µM

Q: And the GI50 (EKVX NSCLC)?
A: 1.38 µM

Q: What about the TGI (EKVX NSCLC) of the same compound?
A: > 100 µM

Q: What about the GI50 (A498 renal) of the same compound?
A: 3.09 µM

Q: What about the TGI (A498 renal) of the same compound?
A: 64.2 µM

Q: And the GI50 (HCC-2998 colon)?
A: 8.78 µM

Q: What about the TGI (HCC-2998 colon) of the same compound?
A: > 100 µM

Q: And the GI50 (SK-MEL-2 melanoma)?
A: 2.44 µM

Q: What about the TGI (SK-MEL-2 melanoma) of the same compound?
A: 5.89 µM

Q: And the GI50 (COLO 205 colon)?
A: 1.83 µM

Q: And the TGI (COLO 205 colon)?
A: 5.07 µM

Q: And the GI50 (NCI-H23 lung)?
A: 0.974 µM

Q: And the TGI (NCI-H23 lung)?
A: 6.77 µM

Q: And the GI50 (U251 CNS)?
A: 3.78 µM

Q: And the TGI (U251 CNS)?
A: > 100 µM

Q: What about the GI50 (NCI-H522 lung) of the same compound?
A: 2.67 µM

Q: And the TGI (NCI-H522 lung)?
A: 9.38 µM

Q: And the GI50 (UO-31 renal)?
A: 2.24 µM

Q: What about the TGI (UO-31 renal) of the same compound?
A: 33.5 µM

Q: What about the GI50 (HS 578T breast) of the same compound?
A: 4 µM

Q: And the TGI (HS 578T breast)?
A: 44.6 µM

Q: And the GI50 (NCI/ADR-RES ovarian)?
A: 1 µM

Q: What about the TGI (NCI/ADR-RES ovarian) of the same compound?
A: 4.69 µM

Q: What about the GI50 (OVCAR-4 ovarian) of the same compound?
A: 1.24 µM

Q: And the TGI (OVCAR-4 ovarian)?
A: > 23.8 µM

Q: What about the GI50 (UACC-62 melanoma) of the same compound?
A: 1.38 µM

Q: And the TGI (UACC-62 melanoma)?
A: 3.88 µM

Q: And the GI50 (MOLT-4 leukemia)?
A: 0.812 µM

Q: And the TGI (MOLT-4 leukemia)?
A: 3.29 µM

Q: And the GI50 (SF-268 CNS)?
A: 3.35 µM

Q: What about the TGI (SF-268 CNS) of the same compound?
A: 35.7 µM

Q: And the GI50 (OVCAR-3 ovarian)?
A: 1.58 µM

Q: And the TGI (OVCAR-3 ovarian)?
A: 6.72 µM

Q: And the GI50 (UACC-257 melanoma)?
A: 1.27 µM

Q: What about the TGI (UACC-257 melanoma) of the same compound?
A: 4.07 µM

Q: What about the GI50 (OVCAR-8 ovarian) of the same compound?
A: 1.21 µM

Q: And the TGI (OVCAR-8 ovarian)?
A: 5.43 µM

Q: What about the GI50 (KM12 colon) of the same compound?
A: 1.68 µM

Q: What about the TGI (KM12 colon) of the same compound?
A: 4.66 µM

Q: What about the GI50 (MCF7 breast) of the same compound?
A: 1.87 µM

Q: What about the TGI (MCF7 breast) of the same compound?
A: 10.8 µM

Q: And the GI50 (MDA-MB-231 breast)?
A: 8.09 µM

Q: What about the TGI (MDA-MB-231 breast) of the same compound?
A: 51.8 µM

Q: And the GI50 (SN12C renal)?
A: 5.75 µM

Q: And the TGI (SN12C renal)?
A: > 92.3 µM

Q: What about the GI50 (SK-MEL-5 melanoma) of the same compound?
A: 0.202 µM

Q: What about the TGI (SK-MEL-5 melanoma) of the same compound?
A: 0.799 µM

Q: What about the GI50 (HL-60(TB) leukemia) of the same compound?
A: 1.71 µM

Q: What about the TGI (HL-60(TB) leukemia) of the same compound?
A: 5.06 µM

Q: What about the GI50 (SK-OV-3 ovarian) of the same compound?
A: 4.54 µM

Q: And the TGI (SK-OV-3 ovarian)?
A: 40.2 µM

Q: And the GI50 (OVCAR-5 ovarian)?
A: 10.2 µM

Q: What about the TGI (OVCAR-5 ovarian) of the same compound?
A: 57.6 µM

Q: What about the GI50 (SF-539 CNS) of the same compound?
A: 4.84 µM

Q: What about the TGI (SF-539 CNS) of the same compound?
A: 27.7 µM

Q: And the GI50 (PC-3 prostate)?
A: 1.34 µM

Q: And the TGI (PC-3 prostate)?
A: 6.69 µM

Q: And the GI50 (IGROV1 ovarian)?
A: 3.92 µM

Q: And the TGI (IGROV1 ovarian)?
A: 44.8 µM

Q: What about the GI50 (LOX IMVI melanoma) of the same compound?
A: 1.99 µM

Q: What about the TGI (LOX IMVI melanoma) of the same compound?
A: 15.2 µM

Q: And the GI50 (NCI-H460 lung)?
A: 2.51 µM

Q: And the TGI (NCI-H460 lung)?
A: > 52.1 µM

Q: What about the GI50 (SF-295 CNS) of the same compound?
A: 1.99 µM

Q: What about the TGI (SF-295 CNS) of the same compound?
A: 12.5 µM

Q: What about the GI50 (MALME-3M melanoma) of the same compound?
A: 1.89 µM

Q: And the TGI (MALME-3M melanoma)?
A: 8.66 µM

Q: What about the GI50 (CCRF-CEM leukemia) of the same compound?
A: 1.86 µM

Q: What about the TGI (CCRF-CEM leukemia) of the same compound?
A: > 93.7 µM

Q: What about the GI50 (SW-620 colon) of the same compound?
A: 4.18 µM

Q: What about the TGI (SW-620 colon) of the same compound?
A: 30.5 µM

Q: And the GI50 (SK-MEL-28 melanoma)?
A: 2.91 µM

Q: And the TGI (SK-MEL-28 melanoma)?
A: 8.91 µM

Q: And the GI50 (MDA-MB-435)?
A: 1.38 µM

Q: What about the TGI (MDA-MB-435) of the same compound?
A: 5.22 µM

Q: What about the GI50 (TK-10 renal) of the same compound?
A: 4.75 µM

Q: And the TGI (TK-10 renal)?
A: 58.5 µM

Q: And the GI50 (BT-549 breast)?
A: 1.17 µM

Q: What about the TGI (BT-549 breast) of the same compound?
A: 5.84 µM

Q: And the GI50 (DU-145 prostate)?
A: 3.6 µM

Q: What about the TGI (DU-145 prostate) of the same compound?
A: 35.7 µM

Q: What about the GI50 (A549 NSCLC) of the same compound?
A: 2.42 µM

Q: And the TGI (A549 NSCLC)?
A: 12.1 µM

Q: What about the GI50 (CAKI-1 renal) of the same compound?
A: 1.5 µM

Q: And the TGI (CAKI-1 renal)?
A: 16.7 µM

Q: What about the GI50 (SR leukemia) of the same compound?
A: 2.6 µM

Q: And the TGI (SR leukemia)?
A: > 74.8 µM

Q: And the GI50 (SNB-19 CNS)?
A: 17.6 µM

Q: And the TGI (SNB-19 CNS)?
A: > 100 µM

Q: And the GI50 (HOP-62 NSCLC)?
A: 1.72 µM

Q: What about the TGI (HOP-62 NSCLC) of the same compound?
A: 8.05 µM

Q: What about the GI50 (K-562 leukemia) of the same compound?
A: 1.06 µM

Q: What about the TGI (K-562 leukemia) of the same compound?
A: > 55.3 µM

Q: What about the GI50 (HCT-116 colon) of the same compound?
A: 1.68 µM

Q: What about the TGI (HCT-116 colon) of the same compound?
A: 17.2 µM

Q: What about the GI50 (SNB-75 CNS) of the same compound?
A: 3.42 µM

Q: And the TGI (SNB-75 CNS)?
A: 15.8 µM

Q: And the GI50 (786-0 renal)?
A: 4.75 µM

Q: And the TGI (786-0 renal)?
A: 17.9 µM
